# Assay results as given in US5118811A, “Amino acid derivatives possessing prolyl endopeptidase-inhibitory activities” (Japan Tobacco Inc., priority 1989, dated 1992).
# Legend:
# trypsin = target: T1, trypsin (Bos taurus, UniProt P00760); test: Trypsin-Inhibitory Activity; format: biochemical, bovine; settings: read-out: Inhibition rate, trypsin; for inhibition at 0.01 µM: 1 × 10^-8 M; for inhibition at 1 µM: 1 × 10^-6 M; for inhibition at 10 µM: 1 × 10^-5 M
# T1 construct: purchased Sigma; host or cells: bovine pancreas
# T1 sequence (P00760 24-246): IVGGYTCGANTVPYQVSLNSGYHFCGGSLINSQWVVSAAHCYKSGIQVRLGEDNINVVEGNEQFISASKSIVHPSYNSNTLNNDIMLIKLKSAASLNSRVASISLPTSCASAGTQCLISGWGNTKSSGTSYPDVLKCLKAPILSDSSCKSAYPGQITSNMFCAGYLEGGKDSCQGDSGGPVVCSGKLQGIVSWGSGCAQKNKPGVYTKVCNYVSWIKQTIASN
# Protocol: In the present invention, a 50 mM Tris-HCl buffer (pH 8.0) was employed as a buffer for measurement.
# To a mixture of the above-mentioned buffer (850 μl), a solution of the compounds of the present invention in the same buffer (50 μl) and a 0.02 μM solution of trypsin (derived from bovine pancreas, Sigma) in the same buffer (50 μl) was added a 200 μM solution of 7-(prolyl-phenylaranyl-arginyl)-4-methylcoumarinamide (Peptide Institute, Inc.) in the same buffer (50 μl), and the mixture was incubated at 30° C. for 1 hour. The reaction mixture was immersed in ice (0° C.) to terminate the reaction, and the fluorescence (b1) was determined 1 hour later (excitation at 370 nm and emission at 440 nm). Concurrently, there were conducted the experiment wherein, in the system above, the trypsin solution was substituted for a buffer alone, and the experiment wherein the solution of the compounds of the present invention was also substituted for a buffer above. Each fluorescence (b2 and b3) was also determined respectively.
# (§1) Using the fluorescence x1, x2 and x3 measured in the above-mentioned manner, the inhibitory rate against various proteases was calculated by the following formula where x stands for b, c, d, e or f: [formula]
# leucine aminopeptidase = test: Leucine Aminopeptidase-Inhibitory Activity; format: biochemical, swine
# Protocol: (§2) Similarly, by following the procedure mentioned above, but employing a 50 mM Tris-HCl buffer (pH 8.0) as a buffer for measurement, a 0.2 μM solution of leucine aminopeptidase (derived from swine kidney, Sigma) in the same buffer as an enzyme solution and a 200 μM solution of 7-(leucyl-4-methylcoumarinamide (Peptide Institute, Inc.) in the same buffer as a substrate solution. Each fluorescence (d1, d2 and d3) was also determined, respectively.
# as §1
# chymotrypsin = target: T2, chymotrypsin (Bos taurus, UniProt P00766); test: Chymotrypsin-Inhibitory Activity; format: biochemical, bovine; settings: read-out: Inhibition rate, chymotrypsin; for inhibition at 0.01 µM: 1 × 10^-8 M; for inhibition at 1 µM: 1 × 10^-6 M; for inhibition at 10 µM: 1 × 10^-5 M
# T2 construct: purchased Sigma; host or cells: bovine pancreas
# Protocol: as §2, with “chymotrypsin” for “leucine aminopeptidase”, “bovine pancrease,” for “swine kidney,”, “7-(N-succinyl-leucyl-leucyl-valyl-tyrosyl)-4-methylcoumarinamide” for “7-(leucyl-4-methylcoumarinamide”, “(c1, c2” for “(d1, d2”, “c3)” for “d3)”
# as §1
# prolyl endopeptidase = target: T3, prolyl endopeptidase (Rattus norvegicus, UniProt O70196); test: Prolyl Endopeptidase-Inhibitory Activity; format: biochemical; settings: for inhibition at 0.01 µM: 1 × 10^-8 M; for inhibition at 0.01 µM / inhibition at 1 µM / inhibition at 10 µM: read-out: Inhibition rate, prolyl endopeptidase; for IC50: prolyl endopeptidase extracted from rat brain, pH 7.0, 30° C., preincubated 30 minutes, 1 hour; for inhibition at 1 µM: 1 × 10^-6 M; for inhibition at 10 µM: 1 × 10^-5 M
# T3 construct: prolyl endopeptidase extracted from rat brain; from tissue; host or cells: rat brain
# T3 sequence (O70196 whole entry): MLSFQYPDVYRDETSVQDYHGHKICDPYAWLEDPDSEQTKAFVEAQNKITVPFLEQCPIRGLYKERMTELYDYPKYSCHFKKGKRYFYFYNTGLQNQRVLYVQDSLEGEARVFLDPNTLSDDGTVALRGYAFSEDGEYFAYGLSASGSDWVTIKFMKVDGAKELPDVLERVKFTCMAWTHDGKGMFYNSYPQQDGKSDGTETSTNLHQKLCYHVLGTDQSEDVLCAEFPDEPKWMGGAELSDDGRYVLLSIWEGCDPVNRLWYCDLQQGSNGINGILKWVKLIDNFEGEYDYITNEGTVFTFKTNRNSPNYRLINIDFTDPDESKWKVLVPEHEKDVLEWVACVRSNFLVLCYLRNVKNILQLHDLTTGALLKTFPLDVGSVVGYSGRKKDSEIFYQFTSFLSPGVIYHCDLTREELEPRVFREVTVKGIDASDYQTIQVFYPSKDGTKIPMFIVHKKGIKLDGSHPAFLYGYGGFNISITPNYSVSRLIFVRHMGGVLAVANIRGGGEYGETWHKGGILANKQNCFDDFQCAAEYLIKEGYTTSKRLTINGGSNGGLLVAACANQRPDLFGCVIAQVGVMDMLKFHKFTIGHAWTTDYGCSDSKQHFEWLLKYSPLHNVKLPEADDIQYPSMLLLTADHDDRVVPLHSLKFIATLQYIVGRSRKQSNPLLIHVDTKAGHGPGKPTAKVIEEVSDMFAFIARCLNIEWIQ
# Protocol: A mixture of a 0.1M potassium sodium phosphate buffer (pH 7.0) (2675 μl), a solution of the compounds of the present invention in a 0.1M potassium sodium phosphate buffer (pH 7.0) (100 μl) and a solution of prolyl endopeptidase extracted from rat brain in a 25 mM sodium phosphate buffer (100 μl) [123 unit/1, pH 6.8, containing 1 mM dithiothreitol and 0.5 mM EDTA, prepared by the method described in J. Neurochem., 35, 527 (1980)] was preincubated at 30° C. for 30 minutes. Thereto was added a 0.2 mM solution of 7-(N-succinyl-glycyl-prolyl)-4-methylcoumarinamide (Peptide Institute, INC.) in a 0.1M potassium sodium phosphate buffer (pH 7.0) (125 μl), and the mixture was incubated at 30° C. for 1 hour. The reaction mixture was immersed in ice (0° C.) to terminate the reaction, and the fluorescence (a1) was determined ten minutes later (excitation at 370 nm and emission at 440 nm). Concurrently, there were conducted the experiment wherein, in the above system, the prolyl endopeptidase solution was substituted for a 25 mM sodium phosphate buffer (pH 6.8, containing 1 mM dithiothreitol and 0.5 mM EDTA) and the experiment wherein the solution of the compounds of the present invention was also substituted for a 0.1M potassium sodium phosphate buffer (pH 7.0). Each fluorescence (a2 and a3) was also determined respectively [See Tanpakushitsu Kakusan Koso, 29, 127 (1984)]. The prolyl endopeptidase-inhibition rate was calculated by the following formula, and IC50, a concentration of a compound producing 50% inhibition, was estimated by semilogarithmic graph paper. [formula]
# cathepsin B = target: T4, cathepsin B (Bos taurus, UniProt P07688); test: Cathepsin B-Inhibitory Activity; format: biochemical, bovine; settings: read-out: Inhibition rate, cathepsin B; for inhibition at 0.01 µM: 1 × 10^-8 M; for inhibition at 1 µM: 1 × 10^-6 M; for inhibition at 10 µM: 1 × 10^-5 M
# T4 construct: purchased Sigma; host or cells: bovine spleen
# Protocol: Similarly, by following the procedure mentioned above, but employing a 100 mM sodium phosphate buffer (pH 6.0; containing 1.33 mM EDTA Na2) as a buffer for measurement, a 0.02 μM solution of cathepsin B (derived from bovine spleen, Sigma) in the same buffer as an enzyme solution and a 200 μM solution of 7-(N-benzyloxycarbonyl-phenylaranyl-arginyl)-4-methylcoumarinamide (Peptide Institute, Inc.) in the same buffer as a substrate solution. Each fluorescence (f1, f2 and f3) was also determined, respectively.
# as §1
# elastase = target: T5, elastase (Sus scrofa, UniProt P00772); test: Elastase-Inhibitory Activity; format: biochemical, swine; settings: read-out: Inhibition rate, elastase; for inhibition at 0.01 µM: 1 × 10^-8 M; for inhibition at 1 µM: 1 × 10^-6 M; for inhibition at 10 µM: 1 × 10^-5 M
# T5 construct: purchased Sigma; host or cells: swine pancreas
# T5 sequence (P00772 27-266): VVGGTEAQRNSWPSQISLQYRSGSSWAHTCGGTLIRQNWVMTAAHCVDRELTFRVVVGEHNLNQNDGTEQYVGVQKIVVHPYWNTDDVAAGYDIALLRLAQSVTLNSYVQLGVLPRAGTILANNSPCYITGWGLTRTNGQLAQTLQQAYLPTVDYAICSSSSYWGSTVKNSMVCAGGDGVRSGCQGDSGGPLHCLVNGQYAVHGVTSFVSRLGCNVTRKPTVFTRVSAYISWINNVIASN
# Protocol: Similarly, by following the procedure mentioned above, but employing a 1 mM Tris-HCl buffer (pH 8.5) as a buffer for measurement, a 0.2 μM solution of elastase (derived from swine pancreas, Sigma) in the same buffer as an enzyme solution and a 200 μM solution of 7-(N-succinyl-aranyl-prolyl-aranyl)-4-methylcoumarinamide (Peptide Institute, Inc.) in the same buffer as a substrate solution. Each fluorescence (e1, e2 and e3) was also determined, respectively.
# as §1
smiles,measurement,setting,value
"N#C[C@@H]1CCCN1C(=O)[C@@H]1CCCN1C(=O)OCc1ccccc1 [Compound 19, (2S)-1-(N-Benzyloxycarbonyl-L-prolyl)-2-cyanopyrrolidine]",inhibition at 0.01 µM,trypsin,0%
same,"Inhibition rate, leucine aminopeptidase",leucine aminopeptidase; 1 × 10^-8 M,0%
same,inhibition at 0.01 µM,chymotrypsin,0%
same,inhibition at 0.01 µM,prolyl endopeptidase,100%
same,IC50,prolyl endopeptidase,0.35 nM
same,inhibition at 0.01 µM,cathepsin B,0%
same,inhibition at 0.01 µM,elastase,0%
"O=C[C@@H]1CCCN1C(=O)CCC(=O)NCCCN1CCCC1=O [Compound 11, N-{4-Oxo-4-[3-(2-oxo-1-pyrrolidinyl)propylamino]butanoyl}-L-prolinal]",inhibition at 1 µM,trypsin,0%
same,"Inhibition rate, leucine aminopeptidase",leucine aminopeptidase; 1 × 10^-6 M,0%
same,inhibition at 1 µM,chymotrypsin,0%
same,inhibition at 1 µM,prolyl endopeptidase,97%
same,IC50,prolyl endopeptidase,25 nM
same,inhibition at 1 µM,cathepsin B,0%
same,inhibition at 1 µM,elastase,0%
"O=C[C@@H]1CSCN1C(=O)[C@@H]1CSCN1C(=O)CN1CCCC1=O [Compound 7, N-[(2-Oxo-1-pyrrolidinyl)acetyl]-L-thioprolyl-L-thioprolinal]",IC50,prolyl endopeptidase,5 nM
"CC(=O)ON=C[C@@H]1CCCN1C(=O)[C@@H]1CCCN1C(=O)OCc1ccccc1 [Compound 15, (2S)-1-(N-Benzyloxycarbonyl-L-prolyl)-2-pyrrolidinecarboxaldehyde O-acetyloxime]",inhibition at 1 µM,trypsin,0%
same,"Inhibition rate, leucine aminopeptidase",leucine aminopeptidase; 1 × 10^-6 M,0%
same,inhibition at 1 µM,chymotrypsin,0%
same,inhibition at 1 µM,prolyl endopeptidase,100%
same,IC50,prolyl endopeptidase,4.5 nM
same,inhibition at 1 µM,cathepsin B,0%
same,inhibition at 1 µM,elastase,0%
"O=C1CCCN1CC(=O)N1CCC[C@H]1C(=O)N1CCSC1 [Compound 8, 3-{N-[(2-Oxo-1-pyrrolidinyl)acetyl]-L-prolyl}thiazolidine]",inhibition at 10 µM,trypsin,0%
same,"Inhibition rate, leucine aminopeptidase",leucine aminopeptidase; 1 × 10^-5 M,0%
same,inhibition at 10 µM,chymotrypsin,0%
same,inhibition at 10 µM,prolyl endopeptidase,96%
same,IC50,prolyl endopeptidase,200 nM
same,inhibition at 10 µM,cathepsin B,0%
same,inhibition at 10 µM,elastase,0%
"O=C[C@@H]1CCCN1C(=O)[C@@H]1CCCN1C(=O)CN1CCCC1=O [Compound 4, N-[(2-Oxo-1-pyrrolidinyl)acetyl]-L-prolyl-L-prolinal]",inhibition at 0.01 µM,trypsin,0%
same,"Inhibition rate, leucine aminopeptidase",leucine aminopeptidase; 1 × 10^-8 M,0%
same,inhibition at 0.01 µM,chymotrypsin,0%
same,inhibition at 0.01 µM,prolyl endopeptidase,100%
same,IC50,prolyl endopeptidase,0.4 nM
same,inhibition at 0.01 µM,cathepsin B,0%
same,inhibition at 0.01 µM,elastase,0%
"CC(=O)ON=C[C@@H]1CCCN1C(=O)CCC(=O)NCc1ccc(Cl)cc1 [Compound 21, (2S)-1-[4-Oxo-4-(4-chlorobenzylamino)butanoyl]-2-pyrrolidinecarboxaldehyde O-acetyloxime]",inhibition at 1 µM,trypsin,10%
same,"Inhibition rate, leucine aminopeptidase",leucine aminopeptidase; 1 × 10^-6 M,0%
same,inhibition at 1 µM,chymotrypsin,0%
same,inhibition at 1 µM,prolyl endopeptidase,100%
same,IC50,prolyl endopeptidase,40 nM
same,inhibition at 1 µM,cathepsin B,0%
same,inhibition at 1 µM,elastase,0%
"N#C[C@@H]1CSCN1C(=O)[C@@H]1CCCN1C(=O)CN1CCCC1=O [Compound 24, (4R)-3-{N-[(2-Oxo-1-pyrrolidinyl)acetyl]-L-prolyl}-4-cyanothiazolidine]",IC50,prolyl endopeptidase,34 nM
"O=C([C@@H]1CCCN1C(=O)OCc1ccccc1)N1CCC[C@H]1C=NOCc1ccccc1 [Compound 18, (2S)-1-(N-Benzyloxycarbonyl-L-prolyl)-2-pyrrolidinecarboxaldehyde O-benzyloxime]",inhibition at 10 µM,trypsin,0%
same,"Inhibition rate, leucine aminopeptidase",leucine aminopeptidase; 1 × 10^-5 M,0%
same,inhibition at 10 µM,chymotrypsin,0%
same,inhibition at 10 µM,prolyl endopeptidase,100%
same,IC50,prolyl endopeptidase,40 nM
same,inhibition at 10 µM,cathepsin B,0%
same,inhibition at 10 µM,elastase,0%
O=C[C@@H]1CCCN1C(=O)CCC(=O)N1CCCC1=O [Compound 10],IC50,prolyl endopeptidase,70 nM
"CC(=O)ON=C[C@@H]1CSCN1C(=O)[C@@H]1CCCN1C(=O)CN1CCCC1=O [Compound 23, (4R)-3-{N-[(2-Oxo-1-pyrrolidinyl)acetyl]-L-prolyl}-4-thiazolidinecarboxaldehyde O-acetyloxime]",IC50,prolyl endopeptidase,640 nM
"N#C[C@@H]1CSCN1C(=O)[C@@H]1CSCN1C(=O)OCc1ccccc1 [Compound 20, (4R)-3-(N-Benzyloxycarbonyl-L-thioprolyl)-4-cyanothiazolidine]",IC50,prolyl endopeptidase,3.2 nM
"O=C[C@@H]1CSCN1C(=O)[C@@H]1CCCN1C(=O)CN1CCCC1=O [Compound 5, N-[(2-Oxo-1-pyrrolidinyl)acetyl]-L-prolyl-L-thioprolinal]",IC50,prolyl endopeptidase,3 nM
"O=C[C@@H]1CCCN1C(=O)[C@@H]1CSCN1C(=O)CN1CCCC1=O [Compound 6, N-[(2-Oxo-1-pyrrolidinyl)acetyl]-L-thioprolyl-L-prolinal]",IC50,prolyl endopeptidase,1.5 nM
"CC(=O)ON=C[C@@H]1CSCN1C(=O)[C@@H]1CCCN1C(=O)OCc1ccccc1 [Compound 16, (4R)-3-(N-Benzyloxycarbonyl-L-prolyl)-4-thiazolidinecarboxaldehyde O-acetyloxime]",IC50,prolyl endopeptidase,100 nM
"N#C[C@@H]1CCCN1C(=O)CCC(=O)NCc1ccc(Cl)cc1 [Compound 22, (2S)-1-[4-Oxo-4-(4-chlorobenzylamino)butanoyl]-2-cyanopyrrolidine]",inhibition at 1 µM,trypsin,0%
same,"Inhibition rate, leucine aminopeptidase",leucine aminopeptidase; 1 × 10^-6 M,0%
same,inhibition at 1 µM,chymotrypsin,0%
same,inhibition at 1 µM,prolyl endopeptidase,100%
same,IC50,prolyl endopeptidase,10 nM
same,inhibition at 1 µM,cathepsin B,0%
same,inhibition at 1 µM,elastase,0%
"CC(=O)ON=C[C@@H]1CSCN1C(=O)[C@@H]1CSCN1C(=O)OCc1ccccc1 [Compound 17, (4R)-3-(N-Benzyloxycarbonyl-L-thioprolyl)-4-thiazolidinecarboxaldehyde O-acetyloxime]",IC50,prolyl endopeptidase,310 nM
